Measured values reported in US8188063B2, “Use of adenosine A2A modulators to treat spinal cord injury” (University of Virginia Patent Foundation, priority 2006, dated 2012).
Entries after “also recorded” stand apart in the source; their conditions may differ. Blank lines part the entries; values can stand above or below the compound they belong to.

Experiments:
[1] = target: T1, recombinant mouse A3 receptors (Mus musculus, UniProt Q61618); assay: Radioligand competition binding to recombinant mouse A3 receptor (HEK293 membranes); details: high affinity conformational state, means ± SEM, at least six experiments, read-out: Binding affinity (Ki) A3R
T1 construct: expressed in transfected cells
T1 sequence (Q61618 1-319): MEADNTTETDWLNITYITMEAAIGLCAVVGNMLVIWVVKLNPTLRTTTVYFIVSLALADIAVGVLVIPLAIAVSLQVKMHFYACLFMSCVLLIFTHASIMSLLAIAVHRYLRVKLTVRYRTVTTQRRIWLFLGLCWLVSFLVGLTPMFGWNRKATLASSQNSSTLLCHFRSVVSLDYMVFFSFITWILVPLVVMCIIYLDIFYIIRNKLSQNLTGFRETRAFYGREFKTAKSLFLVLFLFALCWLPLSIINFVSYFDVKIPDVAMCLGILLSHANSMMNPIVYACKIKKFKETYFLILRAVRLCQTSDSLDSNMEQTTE
Experimental: Membranes from HEK293 cells stably expressing recombinant mouse A2ARs or A3Rs were used for competition binding assays with [^125I]N6-4-amino-3-iodobenzyladenosine for the A3AR or [^125I]2-[2-(4-amino-3-iodophenyl)ethylamino]adenosine for the A2AR as described previously (Lappas et al., 2005a). Radioligand binding experiments were performed with 25 μg of HEK293 cell membrane protein in a total volume of 0,1 ml of 10 MM HEPES with 1 mM EDTA (pH 7.4) supplemented with 2 Unit/ml adenosine deaminase and 5 mM MgCl2. Nonspecific binding was measured in the presence of 100 μM NECA. The incubation time was 120 min at room temperature. Membranes were filtered on Millipore MultiScreen 96-well filtration plates and washed three times with ice-cold buffer (10 mM Tris, 1 mM MgCl2, pH 7,4) using a Brandel 96-well plate washer. The data were fit to a four-parameter logistic equation. IC50 values were determined using GraphPad Prism, and Ki values calculated (Linden, 1982).
. It is important to note that unlike human receptors, in the mouse, the selectivity of all of these agonist compounds for the A2A over the A3 receptor is limited, and the administration of these compounds to mice is expected to produce some degree of A3 receptor activation. […]. Activation of the A3 receptor may exacerbate inflammation by enhancing the degranulation of rodent mast cells (Jin et al., 1997; Ramkumar et al., 1993, Reeves et al., 1997); although tissue protection by A3 receptor activation also has been noted (Rivo et al., 2004). […]

[2] = target: T2, recombinant mouse A2A receptors (Mus musculus, UniProt Q60613); assay: Radioligand competition binding to recombinant mouse A2A receptor (HEK293 membranes); details: for Ki: high affinity conformational state, recombinant mouse A2A receptor, means ± SEM, at least six experiments, read-out: Binding affinity (Ki) A2AR; for A3/A2A: ratio of Ki at mouse A3R to Ki at mouse A2AR
T2 construct: expressed in transfected cells
Experimental: Nonspecific binding was measured in the presence of 100 μM NECA. The incubation time was 120 min at room temperature. Membranes were filtered on Millipore MultiScreen 96-well filtration plates and washed three times with ice-cold buffer (10 mM Tris, 1 mM MgCl2, pH 7,4) using a Brandel 96-well plate washer. The data were fit to a four-parameter logistic equation.

[3] = tested on: spinal cord compression injury, locomotor function; assay: Spinal cord compression injury, locomotor assessment (mBBB); details: for locomotor function (mBBB score) after spinal cord compression: wild type mice, IP from 5 min before compression, twice daily 4 days, days 1-42, FIG. 2
Experimental: Briefly, mice were anesthetized with a mixture of ketamine and xylazine and placed on a heating pad in a stereotaxic apparatus. A laminectomy was performed at T12 and two adjustable forceps were applied to the vertebra between T11 to T13 to stabilize the spinal cord. Ischemic injury was produced by gently placing a 15 gram compression rod with 1 mm×2 mm rectangular surface onto the intact durra for 5 minutes. […] Injured mice were assessed on post-SCI days 1, 4, 7, 14, 28, and 42. Sham animals received a laminectomy without spinal cord compression. Following SCI, bladders were expressed twice daily until return of normal bladder function.
Animals that were able to walk and scored greater than 14 based on rat BBB scoring criteria were further evaluated based on their ability to traverse steel bars without slipping. Mice were placed on bars 500 mm in length and 3 mm in thickness with decreasing widths: 20 mm (score 16), 15 mm (score 17), 10 mm (score 18), 7 mm (score 19), and 5 mm (score 20). […] Scores obtained from left and right hind limbs were averaged.
Statistical Analysis: Statistical analyses were conducted using SAS version 9.1 (SAS Institute Inc, Cary, N.C.). A mixed model (SAS Proc Mixed) was applied to determine the effect of drug treatment over time. Both the experimental condition (mouse genotype and/or drug) and the day were set as categorical variables. An autoregressive correlation structure was assumed for repeated measures in the entire study.

[4] = tested on: contusive spinal cord injury, locomotor function; assay: Contusive spinal cord injury, locomotor assessment (mouse BBB); details: FIG. 13; for protection from contusive injury in Rag1 KO mice compared to Rag1 KO vehicle: Rag1 KO mice lacking mature lymphocytes
Source text: Female C57BL/6 wild type and Rag-1 KO mice lacking mature lymphocytes between 6-18 weeks of age were purchased from Jackson Laboratory (Bar Harbor, Me.). Adenosine 2A receptor gene deletion (A2AAR −/−, A2AAR knockout) mice were age-matched to their wild types with same genomic background (C57BL/6). Food and water were provided ad libitum before and after experiments. During the experiment period, animals were housed in a pathogen-free isolation barrier region with chip bedding.
Animals were subjected to comtusive spinal cord injury protocol. Briefly, mice were anesthetized with a mixture of ketamine and xylazine and placed on a heating pad in a stereotaxic apparatus. A laminectomy was performed at T12 and two adjustable forceps were applied to the vertebra between T11 to T13 to stabilize the spinal cord. Contusive spinal cord injury (SCI) was produced with an IH device (PSI, Lexington, Ky.) at a defined force from 30 to 100 Kdynes with a dwell time of 30 msec or 60 sec. […] Injured mice were assessed on days 1, 2, 3, 4, 7, 10, 14, 21, 28, 35, and 42 after injury. Sham animals (n=10) received a laminectomy without spinal cord compression. Following SCI, bladders were expressed twice daily until return of normal reflexive bladder function.
Statistical tests were performed using GraphPad™ Prism version 5 software (GraphPad Software, Inc., San Diego, Calif.). Differences in locomotor scores between groups was analyzed by two-way analysis of variance (ANOVA) employing Bonferroni post-tests for repeated measure comparisons. A P value <0.05 was considered to be significant.

[5] = tested on: spinal cord compression injury in bone marrow chimera mice; assay: Spinal cord compression injury in bone marrow chimera and A2AR KO mice, locomotor assessment; assay type: in vivo, mouse
Experimental: Female mice 7-9 weeks of age were irradiated twice with 600 Rads separated by 4 hours. Bone marrow donor mice 12 weeks of age were sacrificed by a lethal injection of sodium pentobarbital. Bone marrow cells were harvested from femurs and tibia by flushing with RPMI-1640 medium (Invitrogen Corporation, Grand Island, N.Y.) in the presence of 10% heat-inhibited fetal bovine serum (FBS). Connective tissue and debris were carefully removed by washing and centrifuging. Red blood cells were lysed by 1× ZAP-OGLOBIN® II lytic Reagent (Beckman Coulter, Miami, Fla.). Recipient mice were anesthetized intraperitoneally with a mixture of 100 mg/ml ketamine and 20 mg/ml xylazine in saline solution. An aliquot of approximately 2×10^6 cells in 200 μl RPMI-1640 with 10% FBS was injected intravenously through left or right jugular vein. BMT mice were used for experiments after 6 weeks. We have previously shown that this procedure results in efficient repopulation of BMDC cells to irradiated mice (Day et al., 2005).

[6] = target: recombinant human A2A receptors (Homo sapiens, UniProt P29274); details: recombinant human receptors (Rieger et al., 2001); cited from earlier work
[7] = tested on: spinal cord white matter / myelin after compression injury; assay: Spinal cord histology and myelin quantification after compression injury; assay type: in vivo, mouse
Experimental: A section of spine between T10 and L1 was removed under anesthesia. The tissue was placed in 4.0% paraformaldehyde in phosphate buffered saline, pH 7.4, and rocked for 4 hours. The disc body, lamina, pedicle, spinous and transverse processes surrounding the cord were carefully removed and the cord trimmed to center the injured area in a 10 mm segment. After incubation at 4° C. overnight, tissues were washed in Dulbecco's phosphate buffered saline (PBS, pH 7.4) twice for 10 minutes, and transferred to cassettes in 70% ethanol for paraffin embedding. Five μm sections were collected at 500 μm intervals using a Leica RM2030 Rotary Microtome. Sections derived from the center of the 2 mm compression zone were stained with hematoxylin & eosin (HE) and eriochrome cyanine (EC) as described below. Slides were examined using an Olympus BX51 light microscope and photographed using an Olympus DP70 digital camera (4080×3072 pixels) with DP70-BSW-V1.2 Capture & Archiving Software.
Hematoxylin & Eosin (HE) Staining. Sections were deparaffinized at 37° C. twice each for 5 minutes in xylene, 100% ethanol, and 95% ethanol, then once for 5 minutes in 70% ethanol and twice for 5 minutes in dH2O. Slides were stained in filtered hematoxylin for 60 seconds and washed in tap water for 3 minutes, stained in Eosin Y for 30 seconds and washed in tap water for 3 minutes. After the slide was dehydrated to xylene, a coverslip was applied.
Eriochrome Cyanine (EC) Staining. The protocol for staining myelin was obtained from the NINDS Spinal Cord Injury Training Course 2004 (The Ohio State University, Columbus, Ohio) and used with minor modifications. […]
Spinal Cord Cross Sectional Area and Myelin Quantification. Total cross-sectional area was measured to determine the extent of spinal cord atrophy, Cross-sectional area stained with EC was calculated by image analysis to evaluate damage of the sagittal myelinated tracts. […] The loss in white matter of each sample was calculated as % of total area stained in respective areas of control samples.

T2 sequence (Q60613 whole entry): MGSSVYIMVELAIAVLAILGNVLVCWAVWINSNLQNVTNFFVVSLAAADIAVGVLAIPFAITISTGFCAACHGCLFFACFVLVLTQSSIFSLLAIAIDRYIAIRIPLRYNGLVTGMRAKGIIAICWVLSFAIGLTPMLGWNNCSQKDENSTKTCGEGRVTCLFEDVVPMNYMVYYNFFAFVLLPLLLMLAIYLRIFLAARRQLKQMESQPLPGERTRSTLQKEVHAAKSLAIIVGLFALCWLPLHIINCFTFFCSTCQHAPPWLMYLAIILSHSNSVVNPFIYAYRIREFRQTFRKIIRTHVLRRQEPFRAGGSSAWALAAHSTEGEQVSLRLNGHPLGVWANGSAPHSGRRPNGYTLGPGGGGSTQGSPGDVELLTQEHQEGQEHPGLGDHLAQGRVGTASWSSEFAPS
Sequence of recombinant human A2A receptors (P29274 whole entry): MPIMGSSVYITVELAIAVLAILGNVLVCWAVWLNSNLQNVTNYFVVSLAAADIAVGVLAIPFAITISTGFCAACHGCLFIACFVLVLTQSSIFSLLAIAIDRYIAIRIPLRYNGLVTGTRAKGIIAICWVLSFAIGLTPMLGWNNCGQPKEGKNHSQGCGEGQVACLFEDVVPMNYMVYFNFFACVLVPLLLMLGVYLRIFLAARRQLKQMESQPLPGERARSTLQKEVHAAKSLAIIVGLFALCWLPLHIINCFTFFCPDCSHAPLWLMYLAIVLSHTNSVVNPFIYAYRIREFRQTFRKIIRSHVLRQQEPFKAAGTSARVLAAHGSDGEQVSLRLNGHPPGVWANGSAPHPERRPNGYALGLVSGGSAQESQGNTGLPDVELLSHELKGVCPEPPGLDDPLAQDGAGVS

SMILES: CCNC(=O)[C@H]1O[C@@H](n2cnc3c(N)nc(C#CCC4CCN(C(=O)OC)CC4)nc32)[C@H](O)[C@@H]1O [ATL202, 4-{3-[6-amino-9-(5-ethyl-carbamoyl-3,4-dihydroxy-tetrahydro-furan-2-yl)-9H-purin-2-yl]-prop-2-ynyl}-piperidine-1-carboxylic acid methyl ester]
Ki [1]: 3.7 ± 0.4 nM
Ki [2]: 1.5 ± 0.55 nM

SMILES: CCNC(=O)C1OC(n2cnc3c(N)nc(C#CCC4CCC(C(=O)OC)CC4)nc32)C(O)C1O (stereo not drawn) [ATL146e, 4-{3-[6-Amino-9-(5-ethylcarbamoyl-3,4-dihydroxy-tetrahydro-furan-2-yl)-9H-purin-2-yl]-prop-2-ynyl}cyclo-hexanecarboxylic acid methyl ester]
Ki [1]: 3.3 ± 2 nM

SMILES: CCNC(=O)C1OC(n2cnc3c(N)nc(C#CCC4CCN(C(=O)OCC(C)C)CC4)nc32)C(O)C1O (stereo not drawn) [ATL210, 4-{3-[6-amino-9-(5-ethylcarbamoyl-3,4-dihydroxy-tetrahydro-furan-2-yl)-9H-purin-2-yl]-prop-2-ynyl}-piperidine-1-carboxylic acid isobutyl ester]
Ki [1]: 5.4 ± 0.7 nM
Ki [2]: 1.04 ± 0.26 nM
A3/A2A [2]: 5.2

SMILES: CCNC(=O)[C@H]1O[C@@H](n2cnc3c(N)nc(NCCc4ccc(CCC(=O)O)cc4)nc32)[C@H](O)[C@@H]1O [CGS21680, 2-[4-(2-carboxyethyl)phenethylamino]-5′-N-ethylcarboxamido-adenosine, reference compound]
Ki [1]: 160 ± 20 nM

Further lines, with some results ahead:

Ki [1]: 16100 nM
SMILES: Nc1nc(NCCc2ccc(O)cc2)nc2nc(-c3ccco3)nn12 [ZM241385, 4-(2-[7-Amino-2-[2-furyl][1,2,4]triazolo[2,3-a][1,3,5]triazin-5-yl-amino]ethyl)phenol, reference compound]
reduction of compressive injury with delayed antagonist treatment ([3]; 6 nol/kg IP twice daily for 4 days after delay of 1, 3, 5 or 7 days, FIG. 10): Protection is maintained; also recorded: significant compared to vehicle for all delay periods
locomotor function (mBBB score) after spinal cord compression ([3]; 6 nmol/kg): improvement in locomotor function that was similar to the effect of the agonist
protection from contusive injury in Rag1 KO mice compared to Rag1 KO vehicle [4]: did not significantly improve protection
protection from contusive injury in Rag1 KO mice compared to vehicle ([4]; Rag1 KO mice, compared to vehicle controls, P=0.0015): significant protection

Ki [1]: 19.3 ± 3.3 nM
selectivity for the mouse A2A over the A3 receptor [2]: 12 fold
Ki [2]: 1.58 ± 0.48 nM
A3/A2A [2]: 12.2
SMILES: COC(=O)N1CCC(CC#Cc2nc(N)c3ncn(C4OC(C(=O)NC5CC5)C(O)C4O)c3n2)CC1 (stereo not drawn) [ATL313, 4-{3-[6-amino-9-(5-cyclopropylcarbamoyl-3,4-dihydroxy-tetrahydro-furan-2-yl)-9H-purin-2-yl]-prop-2-ynyl}-piperidine-1-carboxylic acid methyl ester]
protection of locomotor function in mice lacking A2ARs on BMDC cells ([5]; KO/WT chimera or global A2AR KO, FIGS. 5B, 6): not KO/WT chimera; also recorded: not protected; also recorded: completely absent
protection of locomotor function in WT/KO chimera ([5]; WT marrow into A2AR KO recipients, FIGS. 5C, 6, 7): greatest protection
protection of locomotor function in mice with A2ARs on BMDC cells ([5]; WT, WT/WT and WT/KO mice, FIGS. 5, 6): protects WT/WT; also recorded: protected
affinity and selectivity for human A2A receptor over other adenosine receptor subtypes [6]: highly selective
morphological manifestations of long-term spinal cord injury (H&E, EC) ([7]; 6 nmol/kg, day 42, FIG. 3): substantially reversed
spared myelin (EC-stained area, normalized to sham/uninjured) ([7]; 6 nmol/kg, day 42 after compression, vehicle 61.0%±3.6%): 81.9±0.9%
average ratio of spinal cord white area (injured/sham) ([7]; day 42, N=3-4, P<0.05, vehicle 61.3±3.6): 81.9±0.9
protection from spinal cord compression injury (mBBB) ([3]; 2 nmol/kg IP, FIG. 2A): no significant protection
protection from compression injury with delayed treatment ([3]; 3 nmol/kg IP, delay 0, 5 or 20 min after SCI, two-way ANOVA, FIG. 9): significant
locomotor protection by agonist combined with antagonist ([3]; 6 nmol/kg ATL313 with equimolar ZM241385, FIG. 2D): Early blockade; also recorded: completely blocked
protection when treatment starts just after compression (onset of reperfusion) ([3]; 6 nmol/kg IP 10-15 seconds after terminating compression, compared with start before compression, FIG. 8): reduces locomotor dysfunction; also recorded: equal protection; also recorded: same reduction in SCI
mBBB score ([3]; 6 nmol/kg, day 42 after compression, same animals as myelin analysis, vehicle 5.0±1.4, FIG. 4): 11.3±0.8
optimal dose to reduce SCI (mBBB locomotor score) ([3]; IP twice daily for 4 days during and following compression, FIG. 2A): 6 nmol/kg
reversal of protection by delay of administration ([3]; delay 20 minutes, FIG. 9 legend): partially
protection from spinal cord compression injury (mBBB) ([3]; dose increased from 6 to 20 nmol/kg IP, FIG. 2A): does not produce additional protection
locomotor function (mBBB score) after spinal cord compression ([3]; 6 nmol/kg): significant and sustained increase; also recorded: improved locomotor function at all time points
protection from contusive injury in Rag1 KO mice compared to Rag1 KO vehicle [4]: no evidence of additional protection
